Results from US11529350B2, “Tyrosine kinase non-receptor 1 (TNK1) inhibitors and uses thereof” (Sumitomo Pharma Oncology, Inc., priority 2019, dated 2022).

How the values were obtained:
TNK1 = target: T1, TNK1 (Homo sapiens, UniProt Q13470); assay: TNK1 NanoBRET target engagement assay (HEK293); type: cell-based; set-up: host or cells: HEK293; conditions: HEK293 cells, 2 hours; read-out: NanoBRET TE Assay (HEK293) IC50
T1 sequence (Q13470 1-666): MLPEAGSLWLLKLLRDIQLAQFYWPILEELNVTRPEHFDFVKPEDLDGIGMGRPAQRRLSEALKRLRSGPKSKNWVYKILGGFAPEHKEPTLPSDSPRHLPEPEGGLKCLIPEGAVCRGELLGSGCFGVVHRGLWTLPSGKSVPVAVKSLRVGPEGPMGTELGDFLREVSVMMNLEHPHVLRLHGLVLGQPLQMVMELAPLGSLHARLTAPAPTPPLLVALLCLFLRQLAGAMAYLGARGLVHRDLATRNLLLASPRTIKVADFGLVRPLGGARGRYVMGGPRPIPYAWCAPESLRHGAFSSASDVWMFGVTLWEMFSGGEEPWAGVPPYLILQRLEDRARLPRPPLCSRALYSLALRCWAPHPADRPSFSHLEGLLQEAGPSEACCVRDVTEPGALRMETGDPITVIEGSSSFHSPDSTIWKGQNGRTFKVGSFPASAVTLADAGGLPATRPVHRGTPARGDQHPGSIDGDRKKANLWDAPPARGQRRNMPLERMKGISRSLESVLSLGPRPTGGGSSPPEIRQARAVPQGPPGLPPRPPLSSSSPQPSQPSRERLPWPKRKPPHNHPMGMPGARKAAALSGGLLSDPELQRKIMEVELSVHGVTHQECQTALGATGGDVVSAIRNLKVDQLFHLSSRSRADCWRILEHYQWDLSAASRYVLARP
Text: The NanoBRET target engagement (TE) assay (Promega, Madison, Wis.) enables the interrogation of the displacement of a tracer compound in the active site of a recombinant kinase by a test compound in the intracellular setting. The assay enables simultaneous testing of permeability, solubility, and kinase inhibition, and tests the specific interaction of test agents with a kinase of interest, here, TNK1. The assay is based on the principle of bioluminescence resonance energy transfer (BRET). In the assay, a plasmid-encoded, luciferase-tagged form of TNK1 is transfected into cells. A tracer compound is tagged with a fluorophore that fluoresces when bound to the TNK1 protein. Readout is luminescence and fluorescence. Test compounds show activity by displacing the tracer, thus disrupting BRET.
Methods: The TNK1 NanoBRET TE assays were performed according to the manufacturer's protocol. Briefly, Nanoluc-TNK1 Fusion Vector (Promega, Madison, Wis., Cat. No. NV2181) was transfected into HEK293 cells in bulk (8×10^6 cells in a T175 flask). Up to 30 hours post-transfection, cells were harvested by trypsinization, resuspended at a concentration of 2×10^5 cells/mL, and seeded in 96-well plates at 85 μL/well. A test compound and the K5 tracer were added to each well, and the cells were incubated for 2 hours. Luminescence ([…]) and fluorescence ([…]) were measured to determine a BRET ratio. IC50 values were determined from the BRET ratios using the Graphpad Prism software (GraphPad Software, San Diego, Calif.).

L540 cells = assay: In-vitro cell viability assay (CellTiter-Glo), L540; type: cell-based; conditions: Homo sapiens, L-540
Procedure: Tnk1 is known to drive proliferation and survival of Hodgkin's lymphoma (HL) cells, such as K652 and L540 cell lines (Gu et al., Identification of activated Tnk1 kinase in Hodgkin's lymphoma, Leukemia 24: 861-65 ((2010)). Downregulation of Tnk1 inhibits cell growth and proliferation, and increases apoptosis. To study the individual test compounds in the context of HL cells, CellTiter-Glo® assays (Promega, Madison, Wis.) were performed according to the manufacturer's instructions. The CellTiter-Glo® assay system uses a thermostable luciferase to generate a stable “glow-type” luminescent signal while simultaneously inhibiting endogenous enzymes released during cell lysis (e.g., ATPases). As such, the assay provides a sensitive and stable luminescent output.
Reagent Preparation • 1. The CellTiter-Glo® Buffer was thawed and equilibrated to room temperature prior to use. • 2. The lyophilized CellTiter-Glo® Substrate was equilibrated to room temperature prior to use. • 3. An appropriate volume of CellTiter-Glo® Buffer was transferred into the amber bottle containing CellTiter-Glo® Substrate according the manufacturer's recommendation. The reconstituted lyophilized enzyme/substrate mixture formed the CellTiter-Glo® Reagent. • 4. The CellTiter-Glo® Reagent was mixed by gently vortexing, swirling or inverting the contents to obtain a homogeneous solution.
Protocol for the Cell Viability Assay • 1. A titration of the K652 or L540 cells was performed to determine the optimal number and ensure that the CellTiter-Glo® Assay was performed within the linear range. • 2. Opaque-walled multiwell plates (compatible with the luminometer) were prepared with K652 or L540 cells in culture medium, 100 μl per well for 96-well plates or 25 μl per well for 384-well plates. • 3. Control wells containing medium without cells were prepared to obtain a value for background luminescence. • 4. Test compound was added to experimental wells, and incubated according to culture protocol. • 5. The plate and its contents were equilibrated at room temperature for approximately 30 minutes.
Protocol for Generating an ATP Standard Curve • 1. 1 μM ATP was prepared in culture medium (100 μl of 1 μM ATP solution contains 10^−10 moles ATP). • 2. Serial tenfold dilutions of ATP in culture medium (1 μM to 10 nM; 100 μl contains 10^−10 to 10^−12 moles of ATP) were performed. • 3. A multiwell plate with varying concentrations of ATP standard in 100 μl medium (25 μl for a 384-well plate) was prepared. • 4. A volume of CellTiter-Glo® Reagent equal to the volume of ATP standard present in each well was added. • 5. Contents were mixed for 2 minutes on an orbital shaker. • 6. The plate was allowed to incubate at room temperature for 10 minutes to stabilize the luminescent signal. • 7. Luminescence was recorded.

COc1cc(N2CCN(C)CC2)c(Cl)cc1Nc1ncc(Cl)c(Nc2cccnc2N2CCCC2=O)n1 [Example No. 13, 1-(3-((5-chloro-2-((5-chloro-2-methoxy-4-(4-methylpiperazin-1-yl)phenyl)amino)pyrimidin-4-yl)amino)pyridin-2-yl)pyrrolidin-2-one]
IC50 (TNK1): < 150 nM | IC50 (L540 cells): < 0.5 µM

CN1CCN(c2c(Cl)cc(Nc3ncc(Cl)c(Nc4cccnc4N4CCCC4=O)n3)c3ccccc23)CC1 [Example No. 18, 1-(3-((5-chloro-2-((3-chloro-4-(4-methylpiperazin-1-yl)naphthalen-1-yl)amino)pyrimidin-4-yl)amino)pyridin-2-yl)pyrrolidin-2-one]
IC50 (TNK1): < 150 nM | IC50 (L540 cells): < 0.5 µM

COc1cc(N2CCN(C)CC2)c(Cl)cc1Nc1ncc(Cl)c(Nc2cccnc2N2CCNC2=O)n1 [Example No. 21, 1-(3-((5-chloro-2-((5-chloro-2-methoxy-4-(4-methylpiperazin-1-yl)phenyl)amino)pyrimidin-4-yl)amino)pyridin-2-yl)imidazolidin-2-one]
IC50 (TNK1): < 150 nM | IC50 (L540 cells): 1.5 to 6 µM

CN1CCN(c2ccc(Nc3ncc(Cl)c(Nc4cccnc4N4CCCC4=O)n3)cc2)CC1 [compound 1, 1-(3-((5-chloro-2-((4-(4-methylpiperazin-1-yl)phenyl)amino)pyrimidin-4-yl)amino)pyridin-2-yl)pyrrolidin-2-one]
IC50 (TNK1): < 150 nM | IC50 (L540 cells): 0.5 to 1.5 µM

COc1cc(N2CCN(C)CC2)ccc1Nc1ncc(Cl)c(Nc2cccnc2N2CCCC2=O)n1 [compound 2, 1-(3-((5-chloro-2-((2-methoxy-4-(4-methylpiperazin-1-yl)phenyl)amino)pyrimidin-4-yl)amino)pyridin-2-yl)pyrrolidin-2-one]
IC50 (TNK1): < 150 nM | IC50 (L540 cells): 0.5 to 1.5 µM

CCOc1cc(N2CCN(C)CC2)ccc1Nc1ncc(Cl)c(Nc2cccnc2N(C)C)n1 [compound 3, 5-chloro-N^4-(2-(dimethylamino)pyridin-3-yl)-N^2-(2-ethoxy-4-(4-methylpiperazin-1-yl)phenyl)pyrimidine-2,4-diamine]
IC50 (TNK1): > 1000 nM | IC50 (L540 cells): ≥ 6 µM

CC(C)Oc1cc(N2CCN(C)CC2)ccc1Nc1ncc(Cl)c(Nc2cccnc2N(C)C)n1 [compound 4, 5-chloro-N^4-(2-(dimethylamino)pyridin-3-yl)-N^2-(2-isopropoxy-4-(4-methylpiperazin-1-yl)phenyl)pyrimidine-2,4-diamine]
IC50 (TNK1): > 1000 nM | IC50 (L540 cells): ≥ 6 µM

CN1CCN(c2ccc(Nc3ncc(Cl)c(Nc4cccnc4N(C)C)n3)cc2)CC1 [compound 5, 5-chloro-N^4-(2-(dimethylamino)pyridin-3-yl)-N^2-(4-(4-methylpiperazin-1-yl)phenyl)pyrimidine-2,4-diamine]
IC50 (TNK1): 150 to 1000 nM | IC50 (L540 cells): 0.5 to 1.5 µM

COc1cc(N2CCN(C)CC2)c(C)cc1Nc1ncc(Cl)c(Nc2cccnc2N2CCNC2=O)n1 [compound 9, 1-(3-((5-chloro-2-((2-methoxy-5-methyl-4-(4-methylpiperazin-1-yl)phenyl)amino)pyrimidin-4-yl)amino)pyridin-2-yl)imidazolidin-2-one]
IC50 (TNK1): < 150 nM | IC50 (L540 cells): < 0.5 µM

COc1cc(N2CCN(C)CC2)c(C)cc1Nc1ncc(Br)c(Nc2cccnc2N(C)C)n1 [compound 10, 5-bromo-N^4-(2-(dimethylamino)pyridin-3-yl)-N^2-(2-methoxy-5-methyl-4-(4-methylpiperazin-1-yl)phenyl)pyrimidine-2,4-diamine]
IC50 (TNK1): < 150 nM | IC50 (L540 cells): < 0.5 µM
